Structures can show the parent of a compound that is named as a salt.
Assays:
[1] = biological target: ATR/ATRIP kinase (Homo sapiens (Human), UniProt Q13535); assay: ATR enzyme assay (HTRF, phosphorylation of substrate protein P53); assay type: biochemical; settings: substrate P53, TR-FRET
Description: In this experiment, the phosphorylation level of substrate protein P53 (Eurofins, 14-952) was detected by HTRF technology to measure the activity of ATR/ATRIP (Eurofins, 14-953) kinase. Reaction buffer (25 mM HEPES pH 8.0, 0.01% Brij-35, 1% Glycerol, 5 mM DTT, 1 mg/mL BSA), termination buffer (12.5 mM HEPES pH 8.0, 0.005% Brij-35, 0.5% Glycerol, 250 mM EDTA) and assay buffer (50 mM HEPES pH 7.0, 150 mM NaCl, 267 mM KF, 0.1% sodium cholate, 0.01% Tween 20) were prepared in advance. ATR/ATRIP was diluted with reaction buffer to a working solution of 2 ng/μL, and the substrate protein P53 was diluted with reaction buffer to a working solution of 80 nM, and 4 nM of ATP (Sigma, A2383) working solution (containing 40 mM MnCl2) was prepared with reaction buffer. The compound was 3-fold diluted with DMSO, then diluted with reaction buffer into a working solution, then added to a 384-well plate at 2.5 μL/well, and centrifuged at 1500 rpm for 40 s. Then 2.5 μL of ATR/ATRIP working solution, P53 working solution and ATP working solution were added into the 384-well plate, centrifuged at 1500 rpm for 40 s and reacted at room temperature for 30 minutes. After the reaction was completed, 5 μL of termination buffer was added to each well, and centrifuged at 1500 rpm for 40 s. Antibody working solution containing 0.083 μg/mL anti-phospho-p53 (Ser15)-K (CisBio, cat. 61P08KAE) and 5 μg/mL anti-GST-d2 (CisBio, cat. 61GSTDLA) was prepared with assay buffer and added to the 384-well plate at 5 μL/well, then centrifuged at 1500 rpm for 40 s and reacted overnight at room temperature. Microplate reader (Tecan, Infinite M1000 Pro) was used to detect TR-FRET, and the data were analyzed with Graphpad software, and the four-parameter equation was used to fit the curve and calculate the IC50 value of the inhibitor (Table 1).

[2] = system: LOVO human colon cancer cell line; assay: Cell proliferation assay (Cell titer glo); assay type: cell-based; settings: LOVO cells, 72 hours
Description: In the present disclosure, cell assays were used to evaluate the biological activity of compounds. LOVO (Nanjing Cobioer), a human colon cancer cell line, was cultured in a Dulbecco's Modified Eagle's medium 96-well plate, supplemented with 10% fetal bovine serum and 1% P/S, and the culture environment was 37° C. and 5% CO2. Compound concentrations were ranged from 4.5 nM to 30 μM. The stock solution of the test compound was dissolved in DMSO and added to the medium at the indicated concentration, and incubated for 72 hours. Negative control cells were treated with vehicle only. In some experiments, known ATR inhibitors were added as positive controls. Cell viability was evaluated using the Cell titer glo kit (CTG, Promega) under the instructions of the product specification. The data were analyzed using Graphpad software, and IC50 values and compound fitting curves were obtained (Table 2).

[3] = system: OCI-LY19 human B-cell lymphoma; assay: In vivo drug efficacy, OCI-LY19 human B-cell lymphoma mouse subcutaneous xenograft tumor model; settings: Group 2, 20 mg/kg p.o. once a day
Description: Cell culture: Human B-cell lymphoma OCI-LY19 cells were maintained as a monolayer in MEM-α medium containing 10% fetal bovine serum in a constant temperature incubator at 37° C. with 5% CO2. Tumor cells were subcultured twice a week. Cells in exponential growth phase were harvested and counted for inoculation.
Experimental animals: BALB/c nude mice, 6-8 weeks old, 19-22 g, purchased from Beijing Vital River Laboratory Animal Technology Co., Ltd.
For Vehicle, positive control (AZD6738, CAS number: 1352226-88-0) and compound 2, a total of 6 experimental groups were set up, as shown in Table 5 below:
Experimental method: The OCI-LY19 cell line (3.0×10^6 cells/mouse) was inoculated subcutaneously on the right back of the experimental mouse, and the inoculation volume of each mouse was 0.1 mL, and the growth of tumors was observed regularly, and until the tumor grew to about 100 mm^3, the mice were randomly divided into groups according to the tumor size and body weight, and administered according to the administration plan shown in Table 5, and the mouse body weight and tumor size were measured twice a week during the whole experiment.
tumor volume (mm^3)=0.5×(tumor long diameter×tumor short diameter^2). Tumor size calculation formula: […]

Chain of ATR/ATRIP kinase (Q13535 whole entry): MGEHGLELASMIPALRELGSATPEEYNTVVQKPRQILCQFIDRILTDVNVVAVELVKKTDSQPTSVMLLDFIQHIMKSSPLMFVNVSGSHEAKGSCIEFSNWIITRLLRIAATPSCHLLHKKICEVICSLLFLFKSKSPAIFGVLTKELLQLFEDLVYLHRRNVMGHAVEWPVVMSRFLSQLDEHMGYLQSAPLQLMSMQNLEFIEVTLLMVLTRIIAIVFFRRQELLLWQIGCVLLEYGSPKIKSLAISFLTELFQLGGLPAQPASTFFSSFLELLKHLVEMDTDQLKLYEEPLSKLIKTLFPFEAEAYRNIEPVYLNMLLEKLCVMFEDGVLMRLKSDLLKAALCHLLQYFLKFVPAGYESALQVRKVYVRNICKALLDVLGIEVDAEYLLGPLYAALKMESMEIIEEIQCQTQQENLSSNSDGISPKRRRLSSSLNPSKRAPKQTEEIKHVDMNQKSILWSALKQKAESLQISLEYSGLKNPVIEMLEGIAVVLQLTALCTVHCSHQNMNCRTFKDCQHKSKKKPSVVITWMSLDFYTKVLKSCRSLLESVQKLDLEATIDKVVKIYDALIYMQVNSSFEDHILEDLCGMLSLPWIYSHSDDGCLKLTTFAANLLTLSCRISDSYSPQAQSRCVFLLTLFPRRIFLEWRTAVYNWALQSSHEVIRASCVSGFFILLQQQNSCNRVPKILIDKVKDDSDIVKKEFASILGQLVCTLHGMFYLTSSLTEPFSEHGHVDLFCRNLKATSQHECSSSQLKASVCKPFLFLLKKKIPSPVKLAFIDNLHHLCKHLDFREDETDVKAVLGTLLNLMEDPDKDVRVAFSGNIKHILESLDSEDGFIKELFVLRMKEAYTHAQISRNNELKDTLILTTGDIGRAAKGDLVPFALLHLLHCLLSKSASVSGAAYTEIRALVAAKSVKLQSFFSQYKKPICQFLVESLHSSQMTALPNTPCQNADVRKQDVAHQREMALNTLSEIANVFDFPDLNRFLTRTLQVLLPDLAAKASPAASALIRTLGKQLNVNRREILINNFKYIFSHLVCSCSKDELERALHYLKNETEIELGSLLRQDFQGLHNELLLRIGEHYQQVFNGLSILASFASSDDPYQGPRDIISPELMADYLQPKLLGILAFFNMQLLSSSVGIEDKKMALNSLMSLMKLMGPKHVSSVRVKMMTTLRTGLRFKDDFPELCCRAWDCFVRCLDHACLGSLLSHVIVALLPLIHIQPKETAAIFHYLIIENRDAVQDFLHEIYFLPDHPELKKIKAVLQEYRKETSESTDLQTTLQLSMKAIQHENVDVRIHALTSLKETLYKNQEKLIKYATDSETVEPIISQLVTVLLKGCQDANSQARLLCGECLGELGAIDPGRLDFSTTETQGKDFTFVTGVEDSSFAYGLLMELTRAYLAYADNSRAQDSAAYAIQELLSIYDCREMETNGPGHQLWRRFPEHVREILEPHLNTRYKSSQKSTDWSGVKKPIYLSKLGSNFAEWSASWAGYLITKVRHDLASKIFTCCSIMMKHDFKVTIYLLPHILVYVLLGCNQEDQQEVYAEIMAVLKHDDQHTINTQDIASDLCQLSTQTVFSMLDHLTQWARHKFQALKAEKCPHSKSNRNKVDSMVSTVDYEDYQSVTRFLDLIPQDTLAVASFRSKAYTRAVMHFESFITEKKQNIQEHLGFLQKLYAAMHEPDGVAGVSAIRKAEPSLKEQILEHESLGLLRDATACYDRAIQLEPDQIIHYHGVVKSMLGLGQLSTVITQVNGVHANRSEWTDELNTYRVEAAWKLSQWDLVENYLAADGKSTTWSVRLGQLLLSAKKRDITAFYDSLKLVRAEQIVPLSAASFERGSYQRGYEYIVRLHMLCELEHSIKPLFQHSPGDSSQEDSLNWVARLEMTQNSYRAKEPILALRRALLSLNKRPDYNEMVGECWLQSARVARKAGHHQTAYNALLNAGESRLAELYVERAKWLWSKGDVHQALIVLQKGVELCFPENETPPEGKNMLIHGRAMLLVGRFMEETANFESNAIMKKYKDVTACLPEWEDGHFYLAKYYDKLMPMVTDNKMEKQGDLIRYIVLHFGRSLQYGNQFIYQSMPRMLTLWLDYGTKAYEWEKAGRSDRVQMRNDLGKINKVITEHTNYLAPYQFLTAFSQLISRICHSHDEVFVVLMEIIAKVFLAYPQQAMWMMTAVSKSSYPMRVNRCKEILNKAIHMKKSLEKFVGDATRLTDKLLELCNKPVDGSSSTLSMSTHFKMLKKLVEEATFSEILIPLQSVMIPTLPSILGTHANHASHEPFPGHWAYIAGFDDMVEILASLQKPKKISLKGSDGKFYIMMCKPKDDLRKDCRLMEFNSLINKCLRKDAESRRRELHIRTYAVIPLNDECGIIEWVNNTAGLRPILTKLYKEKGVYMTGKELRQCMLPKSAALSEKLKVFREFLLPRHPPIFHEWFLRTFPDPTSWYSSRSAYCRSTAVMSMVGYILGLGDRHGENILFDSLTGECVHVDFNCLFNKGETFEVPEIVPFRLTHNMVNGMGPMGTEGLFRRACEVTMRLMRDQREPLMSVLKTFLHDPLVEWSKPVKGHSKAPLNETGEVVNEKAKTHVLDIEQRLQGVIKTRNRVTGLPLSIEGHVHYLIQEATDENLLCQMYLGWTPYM
Chain of ATR/ATRIP kinase (Q8WXE1 whole entry partner): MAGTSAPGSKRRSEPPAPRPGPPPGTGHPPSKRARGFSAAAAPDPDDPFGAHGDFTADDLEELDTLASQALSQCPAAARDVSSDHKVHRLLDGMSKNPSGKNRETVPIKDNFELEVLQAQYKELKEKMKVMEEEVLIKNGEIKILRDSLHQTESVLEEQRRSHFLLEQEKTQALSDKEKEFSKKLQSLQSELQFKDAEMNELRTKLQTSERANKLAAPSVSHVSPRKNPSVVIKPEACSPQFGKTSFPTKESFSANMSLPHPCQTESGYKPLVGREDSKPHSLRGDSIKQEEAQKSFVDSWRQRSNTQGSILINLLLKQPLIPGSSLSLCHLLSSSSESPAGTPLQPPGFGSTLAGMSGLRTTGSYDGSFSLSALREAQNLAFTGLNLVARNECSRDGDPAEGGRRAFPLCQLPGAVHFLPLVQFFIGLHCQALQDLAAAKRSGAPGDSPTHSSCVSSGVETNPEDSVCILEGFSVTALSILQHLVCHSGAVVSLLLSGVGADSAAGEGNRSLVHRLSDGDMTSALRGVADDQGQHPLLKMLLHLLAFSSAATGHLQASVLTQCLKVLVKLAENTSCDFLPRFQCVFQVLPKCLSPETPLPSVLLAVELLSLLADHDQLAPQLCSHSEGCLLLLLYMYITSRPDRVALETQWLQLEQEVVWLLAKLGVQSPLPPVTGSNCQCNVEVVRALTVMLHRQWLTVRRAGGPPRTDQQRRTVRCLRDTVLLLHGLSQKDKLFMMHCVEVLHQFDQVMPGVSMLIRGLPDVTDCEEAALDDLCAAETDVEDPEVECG

| IC50 [1] | IC50 [2] | Structure (SMILES) | further results |
| --- | --- | --- | --- |
| 46 nM | 406 nM | C[C@@H]1COCCN1c1nc2c(c(C#N)nn2-c2cc[nH]n2)c2c1CCN2S(C)(=O)=O [Compound 7, (R)-4-(3-methylmorpholinyl)-1-(methylsulfonyl)-6-(1H-pyrazol-3-yl)-1,2,3,6-tetrahydropyrazolo[3,4-b]pyrrolo[2,3-d]pyridine-8-carbonitrile] | – |
| – | – | C[C@@H]1COCCN1c1cc(C2([S@](C)(=N)=O)CC2)nc(-c2cc[nH]c3nccc2-3)n1 [AZD6738, reference compound] | T/C (%) [3]: 31.2%; TGI (%) [3]: 72.1%; Tumor volume (10 days, mm^3) ([3]; 10 days): 108.23 ± 4.67 mm^3; Tumor volume (24 days, mm^3) ([3]; 24 days): 738.65 ± 257.29 mm^3 |
| 1.8 nM | – | C[C@@H]1COCCN1c1nc2c(cnn2-c2cc[nH]n2)c2c1CCN2S(=O)(=O)N(C)C [Compound 4, (R)—N,N-dimethyl-4-(3-methylmorpholino)-6-(1H-pyrazol-3-yl)-2,3-dihydropyrazolo[3,4-b]pyrrolo[2,3-d]pyridine-1(6H)-sulfonamide trifluoroacetate] | – |
| – | 93.7 nM | C[C@@H]1COCCN1c1nc2c(cnn2-c2cc[nH]n2)c2c1CCN2C [Compound 12, (R)-3-methyl-4-(1-methyl-6-(1H-pyrazol-3-yl)-tetrahydropyrazolo[3,4-b]pyrrolo[2,3-d]pyridin-4-yl)morpholine] | – |
| 4.8 nM | 79.6 nM | C[C@@H]1COCCN1c1nc2c(cnn2-c2cc[nH]n2)c2c1CCN2S(=O)(=O)C(F)(F)F [Compound 6, (R)-4-(6-(1H-pyrazol-3-yl)-1-((trifluoromethyl)sulfonyl)-1,2,3,6-tetrahydropyrazolo[3,4-b]pyrrolo[2,3-d]pyridin-4-yl)-3-methylmorpholine trifluoroacetate] | – |
| – | 262 nM | C[C@@H]1COCCN1c1nc2c(cnn2-c2cc[nH]n2)c2c1CCN2S(N)(=O)=O [Compound 5, (R)-4-(3-methylmorpholine)-6-(1H-pyrazol-3-yl)-2,3-dihydropyrazolo[3,4-b]pyrrolo[2,3-d]pyridine-1(6H)-sulfonamide] | – |
| 7.5 nM | – | C[C@@H]1COCCN1c1nc2c(cnn2-c2cc[nH]n2)c2c1CCN2c1cccnc1 [Compound 13, (R)-4-(6-(1H-pyrazol-3-yl)-1-(pyridin-3-yl)-1,2,3,6-tetrahydropyrazolo[3,4-b]pyrrolo[2,3-d]pyridin-4-yl)-3-methylmorpholine trifluoroacetate] | – |
| 5.9 nM | 72 nM | C[C@@H]1COCCN1c1nc2c(cnn2-c2cc[nH]n2)c2c1CCN2C1CC1 [Compound 11, (R)-4-(1-cyclopropyl-6-(1H-pyrazol-3-yl)-1,2,3,6-tetrahydropyrazolo[3,4-b]pyrrolo[2,3-d]pyridin-4-yl)-3-methylmorpholine] | – |
| 40 nM | 32.3 nM | C[C@@H]1COCCN1c1nc2c(-c3cc[nH]n3)nccc2c2c1ccn2S(C)(=O)=O [Compound 8, (R)-3-methyl-4-(1-(methylsulfonyl)-6-(1H-pyrazol-3-yl)-1H-pyrrolo[3,2-c][1,7]naphthyridin-4-yl)morpholine] | – |

Source: patent US20240025899A1, “TRIHETEROCYCLIC DERIVATIVE, AND PHARMACEUTICAL COMPOSITION AND APPLICATION THEREOF” (SHANGHAI DE NOVO PHARMATECH CO., LTD., priority 2020, published 2024)
